Measured values reported in PMC4558166, “Trametinib modulates cancer multidrug resistance by targeting ABCB1 transporter” (Oncotarget, 2015).

Biological target: ABCB1 (MDR1/P-glycoprotein) (Homo sapiens, UniProt P08183)
Assay: Vi-sensitive ATPase stimulation in High Five insect cell membrane vesicles; also rhodamine […]/doxorubicin accumulation in ABCB1-overexpressing cells
Type: biochemical

Sequence of ABCB1 (MDR1/P-glycoprotein) (P08183 whole entry): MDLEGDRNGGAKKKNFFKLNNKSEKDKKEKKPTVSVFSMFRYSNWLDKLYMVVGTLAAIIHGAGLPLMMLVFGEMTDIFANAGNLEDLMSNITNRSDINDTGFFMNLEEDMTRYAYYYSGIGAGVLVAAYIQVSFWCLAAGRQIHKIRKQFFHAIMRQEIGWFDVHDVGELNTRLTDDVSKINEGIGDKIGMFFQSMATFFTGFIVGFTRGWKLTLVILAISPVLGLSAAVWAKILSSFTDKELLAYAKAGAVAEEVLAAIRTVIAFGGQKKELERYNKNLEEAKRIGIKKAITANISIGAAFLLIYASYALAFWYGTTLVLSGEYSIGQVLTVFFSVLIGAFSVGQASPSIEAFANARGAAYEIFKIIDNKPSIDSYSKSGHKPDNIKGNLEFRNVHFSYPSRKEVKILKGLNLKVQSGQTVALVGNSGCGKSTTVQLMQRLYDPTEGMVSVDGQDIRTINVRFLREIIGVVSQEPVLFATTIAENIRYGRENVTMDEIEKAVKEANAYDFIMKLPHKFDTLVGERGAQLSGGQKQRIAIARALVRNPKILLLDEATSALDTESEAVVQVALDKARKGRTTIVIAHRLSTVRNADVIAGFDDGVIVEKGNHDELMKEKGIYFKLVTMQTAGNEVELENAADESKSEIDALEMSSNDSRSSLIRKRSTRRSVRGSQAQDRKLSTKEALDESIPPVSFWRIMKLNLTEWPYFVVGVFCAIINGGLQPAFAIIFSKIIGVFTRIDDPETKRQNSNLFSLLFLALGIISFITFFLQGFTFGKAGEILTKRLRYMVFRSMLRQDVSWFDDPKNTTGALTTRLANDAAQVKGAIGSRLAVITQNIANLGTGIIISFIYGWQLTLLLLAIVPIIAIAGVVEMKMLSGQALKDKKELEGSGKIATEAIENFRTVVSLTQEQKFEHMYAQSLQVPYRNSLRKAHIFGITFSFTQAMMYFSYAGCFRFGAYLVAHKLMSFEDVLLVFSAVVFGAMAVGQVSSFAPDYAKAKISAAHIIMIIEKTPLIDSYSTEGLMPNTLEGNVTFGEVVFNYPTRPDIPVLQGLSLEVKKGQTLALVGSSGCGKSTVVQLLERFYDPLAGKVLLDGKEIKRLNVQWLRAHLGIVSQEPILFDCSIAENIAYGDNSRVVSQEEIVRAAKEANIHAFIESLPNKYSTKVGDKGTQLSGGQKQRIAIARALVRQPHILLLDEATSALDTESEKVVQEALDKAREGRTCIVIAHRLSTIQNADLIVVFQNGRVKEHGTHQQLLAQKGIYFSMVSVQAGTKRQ

Work on `CC(=O)Nc1cccc(-n2c(=O)n(C3CC3)c(=O)c3c(Nc4ccc(I)cc4F)n(C)c(=O)c(C)c32)c1` [Trametinib] yielded an EC50 of 1020 nM.
